According to patent publication EP0335369A2, “New anthracycline derivatives and processes for the preparation of the same” (priority 1988, dated 1989):
In brackets after ≈: the same amount, converted by molar mass. Read-outs that look alike come from different tables or passages of the source.

Tests used:
Leukemia L-1210 cells [1] = assay: Test 1: antitumor activity against leukemia induced in CDF1 mice by Leukemia L-1210 cells (life-span increase); format: in vivo; settings: intraperitoneally once per day for 9 consecutive days, observation 60 days
Method: Antitumor activities against leukemia in CDF, mice as induced by mouse leukemia, Leukemia L-1210 cells
After an elapsed time of 24 hours, a compounds of the formula (I) of this invention to be tested was administered intraperitoneally for 9 consecutive days once per day. Observation was made for 60 days, where survival days of each mouse tested were recorded. In comparison with the control test wherein mice were treated with the administration of physiological saline alone, the increase (%) in the life-span of the treated mice was calculated as T/C %, where T is the mean survival days of the treated animals and C is the mean survival days of the untreated control animals. For the comparison, daunomycin and adriamycin were also tested in the same manner.

Leukemia L-1210 cells [2] = assay: Test 3: antitumor activity against leukemia induced in CDF1 mice by Leukemia L-1210 cells (procedure of Test 1 repeated); format: in vivo; settings: for % Increase in life-span (T/C, %): intraperitoneally once per day for 9 consecutive days, observation 60 days
Method: Antitumor activities against leukemia in CDF1 mice as induced by mouse leukemia, Leukemia L-1210 cells
To evaluate the antitumor effects of the compounds of the formula (I') according to the sixth aspect of this invention against experimental tumors in animals, the procedure of Test 1 given hereinbefore is repeated. Thus, CDF1 mice were intraperitoneally transplanted with cells of Leukemia L-1210 (at a dose of 1 x 10^5 cells/mouse). After an elapsed time of 24 hours from the tumor transplantation, a test compound of the formula (I') of the sixth aspect invention to be evaluated was administered intraperitoneally for 9 consecutive days once per day. Observation was made for 60 day, where survival days of each mouse tested were recorded. In comparison with the control test wherein mice were treated with the administration of physiological saline alone, the increase (%) in the life-span of the treated mice was calculated as T/C %, where T is the mean survival days of the treated animals and C is the mean survival days of the untreated control animals. For the comparison, daunomycin and adriamycin were also tested in the same manner.

[3] = Solubility in phosphate buffer solution of pH 7.4 at room temperature; format: physicochemical; settings: for solubility: aqueous buffer, room temperature, read-out: Solubility; for solubility in the phosphate buffer solution (in words): phosphate buffer solution (0.05 M KH2PO4-NaOH) at pH 7.4
[4] = compounds (I'-c) or (I'-d), phosphate buffer solution of pH 7.4 (0.05M KH2PO4-NaOH)

SMILES	% Increase in life-span (T/C, %) (Leukemia L-1210 cells [1]; Dose 0.15 mg/kg/day) [%]	% Increase in life-span (T/C, %) (Leukemia L-1210 cells [1]; Dose 0.3 mg/kg/day) [%]	% Increase in life-span (T/C, %) (Leukemia L-1210 cells [1]; Dose 0.6 mg/kg/day) [%]	% Increase in life-span (T/C, %) (Leukemia L-1210 cells [1]; Dose 1.25 mg/kg/day) [%]	% Increase in life-span (T/C, %) (Leukemia L-1210 cells [1]; Dose 2.5 mg/kg/day) [%]	% Increase in life-span (T/C, %) (Leukemia L-1210 cells [1]; Dose 5 mg/kg/day) [%]	% Increase in life-span (T/C, %) (Leukemia L-1210 cells [2]; Dose 0.15 mg/kg/day) [%]	% Increase in life-span (T/C, %) (Leukemia L-1210 cells [2]; Dose 0.3 mg/kg/day) [%]	% Increase in life-span (T/C, %) (Leukemia L-1210 cells [2]; Dose 0.6 mg/kg/day) [%]	% Increase in life-span (T/C, %) (Leukemia L-1210 cells [2]; Dose 1.25 mg/kg/day) [%]	% Increase in life-span (T/C, %) (Leukemia L-1210 cells [2]; Dose 2.5 mg/kg/day) [%]	% Increase in life-span (T/C, %) (Leukemia L-1210 cells [2]; Dose 5 mg/kg/day) [%]	solubility [3, 4] [µg/mL]	solubility in the phosphate buffer solution (in words) [3]	solubility ([3]; compounds (Ic), phosphate buffer solution of pH 7.4 (0.05 M KH2PO4-NaOH)) [µg/mL]	complete cure of the leukemia in the mice (Leukemia L-1210 cells [2]; intraperitoneally, 0.15 mg/kg/day)
COc1cccc2c1C(=O)c1c(O)c3c(c(O)c1C2=O)C[C@@](O)(C(C)=O)C[C@@H]3O[C@H]1C[C@H](N)[C@H](O)[C@H](C)O1 [Daunomycin, reference compound]	130	133	166	193	151	117	130	133	166	193	151	117	–	–	–	–
COc1cccc2c1C(=O)c1c(O)c3c(c(O)c1C2=O)C[C@@](O)(C(=O)CO)C[C@@H]3O[C@H]1C[C@H](N)[C@H](O)[C@H](C)O1 [Adriamycin, reference compound]	123	136	142	222	228	191	123	136	142	222	228	191	–	–	–	–
COc1cccc2c1C(=O)c1c(O)c3c(c(O)c1C2=O)C[C@@](O)(C(=O)CO)C[C@@H]3O[C@@H]1O[C@@H](C)[C@@H](O)[C@@H](O)[C@H]1F [7-0-(2,6-Dideoxy-2-fluoro-α-L-talopyranosyl) adriamycinone, reference compound]	127	182	185	275	>350	>750	127	182	185	275	>350	>750	–	–	–	–
C[C@@H]1O[C@@H](O[C@H]2C[C@](O)(C(=O)COC(=O)CCCCCC(=O)O)Cc3c(O)c4c(c(O)c32)C(=O)c2ccccc2C4=O)[C@H](F)[C@H](O)[C@@H]1O [Example 18, 4-demethoxy-7-O-(2,6-dideoxy-2-fluoro-a-L-talopyranosyl)adriamycinone 14-0-hemipimelate]	–	–	–	–	–	–	–	–	–	–	–	–	< 1000	scarcely soluble	–	–
C[C@@H]1O[C@@H](O[C@H]2C[C@](O)(C(=O)COC(=O)CCCC(=O)O)Cc3c(O)c4c(c(O)c32)C(=O)c2ccccc2C4=O)[C@H](F)[C@H](O)[C@@H]1O [Example 16, 4-demethoxy-7-O-(2,6-dideoxy-2-fluoro-α-L-talopyranosyl)adriamycinone 14-0-hemiglutarate]	–	–	–	–	–	–	–	–	–	–	–	–	10000 (≈ 15.5 mM)	soluble	–	–
CC(=O)[C@]1(O)Cc2c(O)c3c(c(O)c2[C@@H](O[C@@H]2O[C@@H](C)[C@@H](O)[C@@H](O)[C@H]2F)C1)C(=O)c1ccccc1C3=O [Example 12, 4-demethoxy-7-O-(2,6-dideoxy-2-fluoro-α-L-talopyranosyl)daunomycinone]	–	–	–	–	–	–	106	138	202	> 436	101	80	–	–	–	–
COc1cccc2c1C(=O)c1c(O)c3c(c(O)c1C2=O)C[C@@](O)(C(=O)CO)C[C@@H]3O[C@@H]1O[C@@H](C)[C@H](O)[C@@H](O)[C@H]1F [Example 3, 7-O-(2,6-dideoxy-2-fluoro-a-L-mannopyranosyl)adriamycinone]	157	>440	>363	>426	231	211	–	–	–	–	–	–	–	–	–	–
COc1cccc2c1C(=O)c1c(O)c3c(c(O)c1C2=O)C[C@@](O)(C(C)=O)C[C@@H]3O[C@@H]1O[C@@H](C)[C@H](O)[C@@H](O)[C@H]1F [Example 1, 7-0-(2,6-dideoxy-2-fluoro-a-L-mannopyranosyl)daunomycinone]	109	123	189	>309	280	160	–	–	–	–	–	–	–	–	–	–
COc1cccc2c1C(=O)c1c(O)c3c(c(O)c1C2=O)C[C@@](O)(C(=O)COC(=O)CCCC(=O)O)C[C@@H]3O[C@@H]1O[C@@H](C)[C@H](O)[C@@H](O)[C@H]1F [Example 7, 7-0-(2,6-dideoxy-2-fluoro-a-L-. mannopyranosyl)adriamycinone 14-0-hemiglutarate]	–	–	–	–	–	–	–	–	–	–	–	–	–	–	28000 (≈ 41.4 mM)	–
C[C@@H]1O[C@@H](O[C@H]2C[C@](O)(C(=O)CO)Cc3c(O)c4c(c(O)c32)C(=O)c2ccccc2C4=O)[C@H](F)[C@H](O)[C@H]1O [Example 4, 7-O-(2,6-dideoxy-2-fluoro-a-L-mannopyranosyl)-4-demethoxyadriamycinone]	>534	>686	>686	141	53	22	–	–	–	–	–	–	–	–	–	–
C[C@@H]1O[C@@H](O[C@H]2C[C@](O)(C(=O)CO)Cc3c(O)c4c(c(O)c32)C(=O)c2ccccc2C4=O)[C@H](F)[C@H](O)[C@@H]1O [Example 13, 4-demethoxy-7-O-(2,6-dideoxy-2-fluoro-a-L-talopyranosyl)adriamycinone]	–	–	–	–	–	–	–	>348	>427	96	80	77	–	–	–	three mice were completely cured among the treated four mice
CC(=O)[C@]1(O)Cc2c(O)c3c(c(O)c2[C@@H](O[C@@H]2O[C@@H](C)[C@H](O)[C@@H](O)[C@H]2F)C1)C(=O)c1ccccc1C3=O [Example 2, 4-demethoxy-7-O-(2,6-dideoxy-2-fluoro-α-L-mannopyranosyl)daunomycinone]	113	163	309	> 686	134	73	–	–	–	–	–	–	–	–	–	–
COc1cccc2c1C(=O)c1c(O)c3c(c(O)c1C2=O)C[C@@](O)(C(C)=O)C[C@@H]3O[C@@H]1O[C@@H](C)[C@@H](O)[C@@H](O)[C@H]1F [7-0-(2,6-Dideoxy-2-fluoro-α-L-talopyranosyl) daunomycinone, reference compound]	105	105	118	171	217	184	105	105	118	171	217	184	–	–	–	–
